Molecular target: human orexin type 2 receptor (hOX2R) (Homo sapiens (Human), UniProt O43614)
Assay: Measurement of orexin type 2 receptor agonist activity (Experimental Example 2-1, FLIPR TETRA, intracellular Ca2+)
Format: cell-based
Settings: CHO dhfr- cells expressing hOX2R, FLIPR TETRA, Fluo-4AM; for Emax: read-out: Emax (%)

Sequence of human orexin type 2 receptor (hOX2R) (O43614 whole entry): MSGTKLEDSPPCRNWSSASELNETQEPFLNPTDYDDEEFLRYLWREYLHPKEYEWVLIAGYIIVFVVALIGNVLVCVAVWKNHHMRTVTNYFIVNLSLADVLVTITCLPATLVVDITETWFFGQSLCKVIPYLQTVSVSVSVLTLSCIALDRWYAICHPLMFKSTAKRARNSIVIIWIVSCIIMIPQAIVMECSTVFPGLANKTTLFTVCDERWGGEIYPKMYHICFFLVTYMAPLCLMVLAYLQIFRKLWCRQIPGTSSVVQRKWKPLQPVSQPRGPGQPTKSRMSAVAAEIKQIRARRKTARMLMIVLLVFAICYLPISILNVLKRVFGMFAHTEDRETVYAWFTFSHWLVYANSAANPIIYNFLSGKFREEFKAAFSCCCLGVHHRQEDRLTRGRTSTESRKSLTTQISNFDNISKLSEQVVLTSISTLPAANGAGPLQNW

Row | SMILES | Emax [%] | EC50 [nM] | Emax (%)
1 | COC(=O)N1CCC[C@H](NS(C)(=O)=O)[C@@H]1CO[C@H]1CC[C@@H](c2cccc(F)c2)CC1 [Example 200, methyl (2R,3S)-2-(((cis-4-(3-fluorophenyl)cyclohexyl)oxy)methyl)-3-((methylsulfonyl)amino)piperidine-1-carboxylate] | 95 |  | 
2 | CS(=O)(=O)N[C@H]1CCCN(C(=O)C2CC2)[C@H]1CO[C@H]1CC[C@@H](c2c(F)cccc2F)CC1 [Example 213, N-((2R,3S)-1-(cyclopropylcarbonyl)-2-(((cis-4-(2,6-difluorophenyl)cyclohexyl)oxy)methyl)piperidin-3-yl)methanesulfonamide] | 102 | 0.44 | 
3 | CS(=O)(=O)N[C@H]1CCCN(C(=O)C2CC2)[C@H]1CO[C@H]1CC[C@@H](c2cc(F)ccc2F)CC1 [Example 214, N-((2R,3S)-1-(cyclopropylcarbonyl)-2-(((cis-4-(2,5-difluorophenyl)cyclohexyl)oxy)methyl)piperidin-3-yl)methanesulfonamide] | 105 | 1.5 | 
4 | COC(=O)N1CCC[C@H](NS(C)(=O)=O)[C@@H]1CO[C@H]1CC[C@@H](c2c(F)cccc2F)CC1 [Example 215, methyl (2R,3S)-2-(((cis-4-(2,6-difluorophenyl)cyclohexyl)oxy)methyl)-3-((methylsulfonyl)amino)piperidine-1-carboxylate] | 105 | 2.5 | 
5 | CC(=O)N1CCC[C@H](NS(C)(=O)=O)[C@@H]1CO[C@H]1CC[C@@H](c2cc(F)ccc2F)CC1 [Example 217, N-((2R,3S)-1-acetyl-2-(((cis-4-(2,5-difluorophenyl)cyclohexyl)oxy)methyl)piperidin-3-yl)methanesulfonamide] |  | 13 | 110
6 | CS(=O)(=O)N[C@H]1CCCN(C(=O)[C@@H]2C[C@@H]2F)[C@H]1COC1CCN(c2ccccc2F)CC1 [Example 221, N-(cis-1-(((1S,2S)-2-fluorocyclopropyl)carbonyl)-2-(((1-(2-fluorophenyl)piperidin-4-yl)oxy)methyl)piperidin-3-yl)methanesulfonamide] | 96 | 1600 | 
7 | CS(=O)(=O)N[C@H]1CCCN(C(=O)[C@H]2C[C@@H]2F)[C@H]1COC1CCN(c2ccccc2F)CC1 [Example 222, N-(cis-1-(((1R,2S)-2-fluorocyclopropyl)carbonyl)-2-(((1-(2-fluorophenyl)piperidin-4-yl)oxy)methyl)piperidin-3-yl)methanesulfonamide] | 102 | 2100 | 
8 | CS(=O)(=O)N[C@H]1CCCN[C@H]1CO[C@H]1CC[C@@H](c2cc(F)cc(F)c2F)CC1 [Example 239, N-((2R,3S)-2-(((cis-4-(2,3,5-trifluorophenyl)cyclohexyl)oxy)methyl)piperidin-3-yl)methanesulfonamide] | 102 | 280 | 
9 | CC(=O)N1CCC[C@H](NS(C)(=O)=O)[C@@H]1CO[C@H]1CC[C@@H](c2ccccc2F)CC1 [Example 240, N-((2R,3S)-1-acetyl-2-(((cis-4-(2-fluorophenyl)cyclohexyl)oxy)methyl)piperidin-3-yl)methanesulfonamide] | 107 | 24 | 
10 | COC(=O)N1CCC[C@H](NS(C)(=O)=O)[C@@H]1CO[C@H]1CC[C@@H](c2cc(F)cc(F)c2)CC1 [Example 241, methyl (2R,3S)-2-(((cis-4-(3,5-difluorophenyl)cyclohexyl)oxy)methyl)-3-((methylsulfonyl)amino)piperidine-1-carboxylate] | 97 | 1.2 | 
11 | CS(=O)(=O)N[C@H]1CCCN(C(=O)C2CC2)[C@H]1CO[C@H]1CC[C@@H](c2cc(F)cc(F)c2)CC1 [Example 242, N-((2R,3S)-1-(cyclopropylcarbonyl)-2-(((cis-4-(3,5-difluorophenyl)cyclohexyl)oxy)methyl)piperidin-3-yl)methanesulfonamide] | 99 | 0.88 | 

— patent US10287305B2, “Substituted piperidine compound and use thereof” (Takeda Pharmaceutical Company Limited, priority 2016, dated 2019)
